How the values were obtained:
[1] = molecular target: T1, P. falciparum glutathione reductase (PfGR) (Plasmodium falciparum, UniProt Q94655); assay: NADPH oxidation at […] nm, Cleland plot ([…]/kcat vs [I]); format: biochemical
T1 construct: gene GR; 2 x 55 kD homodimer with FAD

[2] = molecular target: T1, P. falciparum glutathione reductase (PfGR); assay: GSH-mediated DTNB reduction at […] nm, Cleland plot; format: biochemical

T1 sequence (Q94655 2-500): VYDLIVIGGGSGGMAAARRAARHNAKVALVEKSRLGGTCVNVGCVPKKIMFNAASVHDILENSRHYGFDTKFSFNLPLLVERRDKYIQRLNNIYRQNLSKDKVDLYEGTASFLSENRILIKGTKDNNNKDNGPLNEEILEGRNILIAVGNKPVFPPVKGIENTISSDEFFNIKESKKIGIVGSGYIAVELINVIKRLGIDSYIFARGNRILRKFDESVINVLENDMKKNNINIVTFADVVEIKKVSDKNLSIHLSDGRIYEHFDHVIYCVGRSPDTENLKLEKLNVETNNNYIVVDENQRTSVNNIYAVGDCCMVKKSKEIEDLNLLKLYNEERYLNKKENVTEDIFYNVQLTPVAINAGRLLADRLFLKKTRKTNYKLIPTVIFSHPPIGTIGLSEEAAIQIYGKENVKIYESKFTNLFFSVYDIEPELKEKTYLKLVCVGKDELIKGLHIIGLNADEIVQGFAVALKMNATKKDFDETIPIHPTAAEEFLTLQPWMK

| SMILES | Ki [1] [µM] | Ki [2] [µM] |
| --- | --- | --- |
| O=C1CN(/N=C/c2ccc([N+](=O)[O-])o2)C(=O)N1 [compound 10, Nitrofurantoin] | 9 ± 1 | – |
| O=C(O)c1ccc([N+](=O)[O-])cc1 [compound 2, 4-Nitrobenzoic acid] | 1200 ± 180 | – |
| O=[N+]([O-])c1ccc(/C=N/O)o1 [compound 11, Nifuroxime] | 32 ± 5 | – |
| CC(=O)c1ccc([N+](=O)[O-])cc1 [compound 4, 4-Nitroacetophenone] | 70 ± 11 | – |
| NC(=O)c1cc(N2CC2)c([N+](=O)[O-])cc1[N+](=O)[O-] [compound 3, 5-(Aziridin-1-yl)-2,4-dinitrobenzamide] | – | 350 ± 40 |
| O=Cc1ccc([N+](=O)[O-])cc1 [compound 7, 4-Nitrobenzaldehyde] | 25 ± 4 | – |
